Measured values published in patent publication US20180094051A1, “METHOD FOR INHIBITING LYMPHANGIOGENESIS BY ADMINISTRATION OF AN INHIBITOR OF THE CXCL12 PATHWAY” (Tsinghua University, priority 2012, published 2018).
“Also recorded” adds a separate entry of the source.

B1: CXCR4: Printed in b110 as the treating agent; apparently a misprint for VEGF-C (protein)
chain: MEPISVSIYTSDNYSEEVGSGDYDSNKEPCFRDENVHFNRIFLPTIYFIIFLTGIVGNGLVILVMGYQKKLRSMTDKYRLHLSVADLLFVITLPFWAVDAMADWYFGKFLCKAVHIIYTVNLYSSVLILAFISLDRYLAIVHATNSQRPRKLLAEKAVYVGVWIPALLLTIPDFIFADVSQGDISQGDDRYICDRLYPDSLWMVVFQFQHIMVGLILPGIVILSCYCIIISKLSHSKGHQKRKALKTTVILILAFFACWLPYYVGISIDSFILLGVIKQGCDFESIVHKWISITEALAFFHCCLNPILYAFLGAKFKSSAQHALNSMSRGSSLKILSKGKRGGHSSVSTESESSSFHSS

How the values were obtained:
[1] = test system: mouse lymphatic endothelial cells; test: Cell chemotaxis assay (Transwell); format: cell-based; conditions: antibodies 5 μg/mL, AMD3100 25 μg/mL, 6 hours; for effect on migration of mouse lymphatic endothelial cells induced by CXCL12: CXCL12 100 ng/mL, LY294002 and U0126 10 μM, pretreated 30 minutes
Description: The migration ability of mouse lymphatic endothelial cells was assessed using 8-μm-pore Transwell bucket (filter membrane) (purchased from Costar). The transwell bucket was placed into a 24-well plate. Mouse primary lymphatic endothelial cells (mLECs) at passage 2 or 3 in good conditions were selected, and divided into five groups, four parallel samples for each group and approximately 2×10^4 cells for each parallel sample. The cells were digested with trypsin, resuspended in 200 μL of fresh serum-free endothelial cell culture medium (ECM, purchased from Sciencell), and then seeded into the inner chambers of the Transwell bucket. To each outer chamber was added 800 μL of serum-free endothelial cell culture medium mixed with 1 ng/mL, 20 ng/mL, 100 ng/mL of chemokine CXCL12 (purchased from R&D Systems), 100 ng/mL of VEGF-C (purchased from R&D Systems) and PBS control, respectively. The culture plate was placed into an incubator and incubated under 5% CO2 at 37° C. for 6 hours.
After taking out the culture plate, the Transwell bucket was fixed in 4% paraformaldehyde solution for 15 minutes. The Transwell bucket was rinsed twice in PBS, stained with 0.1% crystal violet solution for 30 minutes, and then washed with PBS to remove the non-specifically bound crystal violet. The cells inside Transwell membrane were wiped off gently with medical cotton swabs. Note that the cells on the edge of the membrane should also be wiped off to avoid affecting cell counting. The Transwell bucket was placed under a microscope (Olympus IX71 microscope), and the cells migrated from the outer membrane were observed by microscopy. 8 fields per group were photographed randomly to count the cells.
The migration ability of mouse lymphatic endothelial cells was assessed using 8-μm-pore Transwell bucket (purchased from Costar). The bucket was placed into a 24-well plate. Mouse primary lymphatic endothelial cells (mLECs) at passage 2 or 3 in good conditions were selected, and divided into six groups, four parallel samples for each group, and approximately 2×10^4 cells for each parallel sample. The cells were digested with trypsin and resuspended in 200 μL, of fresh serum-free endothelial cell culture medium (ECM, purchased from Sciencell). The cells were pretreated for 30 minutes with dimethyl sulfoxide (DMSO) as a control, protein kinase B (Akt) antagonist LY294002 (10 μM, purchased from Sigma-Aldrich) and extracellular signal-regulated kinase (Erk) antagonist U0126 (10 μM, purchased from Sigma-Aldrich), respectively, and then seeded into the inner chambers of the Transwell bucket. […] The cells were stained and the number of the migrated cells was counted.
The migration ability of mouse lymphatic endothelial cells was detected by using 8-μm-pore Transwell bucket (purchased from Costar). […]

[2] = test system: newly formed lymphatic vessels; test: In vivo Matrigel plug assay (lymphangiogenesis); design: species or system BALB/c mice; conditions: CXCL12 500 ng/mL; antibodies 10 μg/mL, AMD3100 50 μg/mL; 8 days
Description: Matrigel plug assay was conducted as previously reported^[44]. BALB/C mice (5 weeks old, female, purchased from Vital River Laboratories, Beijing) were divided into five groups, five mice each group. Growth factor-free Matrigel (9-10 mg/mL, purchased from Becton-Dickinson Biosciences) containing 20 ng/mL, 100 ng/mL, 500 ng/mL of chemokine CXCL12 (purchased from R&D Systems), 500 ng/mL of VEGF-C (purchased from R&D Systems), and PBS control, respectively, was injected subcutaneously into the BALB/c mice along the abdominal midline. The Matrigel formed a solid plug in the mice, and the agent was slowly released from the Matrigel to stimulate new mouse lymphatic vessels to be formed and grown into the Matrigel. 8 days later, the Matrigel was removed carefully.
After being washed in PBS, the Matrigel were fixed in 30% sucrose solution at 4° C. overnight. Frozen sections in a thickness of about 10 μm were prepared and stored at −20° C. The frozen sections were blocked with a blocking solution in a humidified chamber at room temperature for 1 hour. The blocking solution was PBS containing 10% normal goat serum. […]
The newly formed lymphatic vessels in the Matrigel were detected by immunofluorescence, and observed and imaged under a laser confocal microscope (Nikon A1) using the imaging and statistic software NIS-Elements AR 3.0. […]

[3] = test system: chemokine receptor CXCR4; test: Immunoblotting of CXCR4 in lymphatic endothelial cells (incl. HIF-1α RNA interference); format: cell-based; conditions: mouse lymphatic endothelial cells, 100 ng/mL VEGF-C, 6, 12 and 24 hours
Description: Mouse primary lymphatic endothelial cells at passage 2 or 3 in good condition were selected, and starved overnight by replacing the culture medium with a fresh medium free of serum and growth factors. Then the medium was replaced with a medium containing 100 ng/mL of VEGF-C. The cells were incubated for 6, 12 and 24 hours, respectively, and then trypsinized and collected by centrifugation for detecting the expression level of chemokine receptor CXCR4 in the cells by immunoblotting.
The samples were subjected to SDS-PAGE (the concentration of separation gel was 15%). Protein bands were transferred to polyvinylidene difluoride (PVDF) membrane (purchased from Millipore) at 100 mA for 3 hours using an electroblotting device in ice bath. TBST buffer (20 mM Tris, pH7.4, 150 mM NaCl, 0.1% Tween-20) was formulated for preparing blocking solution, primary antibody solution and secondary antibody solution. The PVDF membrane was further incubated in blocking solution containing 5% skim milk for 1 hour at room temperature with gentle shaking. The membrane was then washed with TBST for 5 times, 5 minutes each. […]
The siRNA for interfering with the chemical synthesis of HIF-1α was purchased from Santa Cruz Biotechnology, and the negative control siRNA was purchased from GenePharma, Shanghai. […] HIF-1α knock-down efficiency was detected by immunoblotting. […]

Molecule | effect on migration of mouse lymphatic endothelial cells induced by CXCL12 [1] | effect on activity of VEGF-C (migration of mouse lymphatic endothelial cells) ([1]; VEGF-C 100 ng/mL) | effect on lymphangiogenesis induced by CXCL12 in Matrigel plug [2] | expression level of CXCR4 [3]
N#CC(=C(/N)Sc1ccccc1N)/C(C#N)=C(\N)Sc1ccccc1N [U0126] | inhibited the lymphatic endothelial cell migration induced by chemokine CXCL12 | – | – | –
c1cc(CN2CCCNCCNCCCNCC2)ccc1CN1CCCNCCNCCCNCC1 [AMD3100] | could inhibit the migration of mouse lymphatic endothelial cells induced by CXCL12; also recorded: activity of chemokine CXCL12 was inhibited | had no effect on the activity of growth factor VEGF-C; also recorded: the activity of VEGF-C was not affected | could significantly reduce the activity of chemokine CXCL12 | –
B1 | – | – | – | could upregulate the expression level of CXCR4
